Laboratory results reported in patent US20180028553A1, “USE OF STING AGONIST AS CANCER TREATMENT” (The University of Chicago, priority 2013, published 2018).

Tests used:
B16.F10 tumors = assay: Intratumoral treatment of established B16.F10 tumors; assay type: in vivo, mouse; details: for effect on tumor growth: WT C57BL/6 mice, three IT injections over a one-week period; for injection site reactogenicity: three IT injections
Description: (§1) In vivo tumor experiments. 10^6 of B16-SIY tumor cells, 5×10^4 B16.F10 tumor cells, 10^5 4T1 and CT26, or 10^6 other tumor cells were injected s.c. in 100 μl DPBS or HBSS on the right flank of mice. Following tumor implantation, mice were randomized into treatment groups. […] Measurements of tumors were performed twice per week using calipers, and the tumor volume was calculated with the formula: V=(length×width^2)/2. In some experiments, tumor-free survivors were rechallenged with tumor cells on the opposite flank several weeks after the injection of the primary tumor. Naïve mice were used as controls. For the contralateral experiments, mice were implanted on both flanks and only one tumor was treated. For the B16 melanoma lung metastasis experiments, mice were implanted on the flank with 5×10^4 cells B16.F10 on day 0, and then injected intravenously with 1×10^5 cells on day 7. Lungs were harvested on day 28. Administration of compounds, measurements of tumors and counting of lung tumors were performed in a blinded fashion.

[1] = test system: murine bone marrow macrophages (BMMs); assay: qRT-PCR of IFN-β and cytokines in bone marrow macrophages stimulated with CDNs; assay type: cell-based, mouse; details: WT C57BL/6 BMMs, 5 μM, 6 hours; compared to ML-cGAMP, poly I:C and LPS on a molar equivalent basis
Description: WT BMM were stimulated with CDN at 5 μM in HBSS with the addition of Effectene (Qiagen) transfection reagent (per kit protocol). […] After a 6 hr incubation, cells were harvested and assessed by real-time qRT-PCR for gene expression of IFN-β1, MCP-1, TNF-α) and IL-6 using the PrimePCR RNA purification and cDNA analysis system, and run on the CFX96 gene cycler (BioRad).

[2] = test system: five hSTING alleles (WT, REF, HAQ, AQ and Q); assay: IFN-β luciferase reporter assay in HEK 293T cells expressing hSTING variants; assay type: cell-based, human; details: 10 μM CDN, 6 hours
Description: (§2) Luciferase Assay. […] After 20 min, stimulation mixtures were removed and normal media was added. After a total of 6 hours, cell lysates were prepared and reporter gene activity measured using the Dual Luciferase Assay System (Promega) on a Spectramax M3 luminometer.

hSTING^REF = biological target: T1, hSTING^REF (Homo sapiens, UniProt Q86WV6); assay: IFN-β luciferase reporter assay in HEK 293T cells expressing hSTING REF; assay type: cell-based; details: 10 μM CDN, 6 hours
T1 construct: expressing each of the full length hSTING variants; expressed in transfected cells; host or cells: HEK 293T (deficient in endogenous STING), MSCV2.2 retroviral transduction
Description: as §2

4T-1 tumors = assay: Intratumoral treatment of 4T-1 tumors; assay type: in vivo, mouse
Description: as §1

B16.F10 lung metastases = assay: B16 melanoma lung metastasis experiment; assay type: in vivo, mouse; details: flank tumor treated IT, ML RR-S2 CDA 50 μg versus DMXAA 150 μg
Description: as §1

CT26 colon carcinoma = assay: Intratumoral treatment of CT26 colon carcinoma; assay type: in vivo, mouse
Description: as §1

[3] = test system: CT26 rejection antigen AH1; assay: IFN-γ ELISPOT against AH1 in CT26-bearing mice; assay type: in vivo, mouse; details: 21 days post-implantation
Description: IFN-γ ELISPOT and SIY-pentamer staining. […] […] Spots were developed using the BD mouse IFN-γ kit according to the manufacturer's instructions and the number of spots was measured using an Immunospot Series 3 Analyzer and analyzed using ImmunoSpot software (Cellular Technology Ltd). For SIY-pentamer staining, splenocytes were preincubated for 15 min with anti-CD16/32 monoclonal antibody (93) to block potential nonspecific binding, and labeled with PE-MHC class I pentamer (Proimmune) consisting of murine H-2K^b complexed to […] (SIY) peptide, anti-TCRβ-AF700 (H57-597), anti-CD8-Pacific Blue (53-6.7), anti-CD4-Pacific Orange (RM4-5) (all antibodies from BioLegend) and the Fixable Viability Dye eFluor 450 (eBioscience). Stained cells were analyzed using LSR II cytometer with FACSDiva software (BD). Data analysis was conducted with FlowJo software (Tree Star).

[4] = test system: STING pathway (TBK1, IRF3 phosphorylation); assay: Western blot of pTBK1 and pIRF3 in macrophages and BM-DCs after STING agonist; assay type: cell-based, mouse; details: WT macrophages; DMXAA 50 μg/ml or ML RR-S2 CDA 50 μM
Description: DMXAA for the same time-points. Proteins were extracted with Triton-X buffer (150 mM sodium chloride, 50 mM Tris, 1% Triton-X, pH 8.0) with proteinase inhibitors (Thermo scientific) and phosphatase inhibitors (Sigma). 30 μg of protein was electrophoresed in 10% SDS-PAGE gels and transferred onto Immobilon-FL membranes (Millipore). Blots were incubated with antibodies specific for phosphorylated TBK1 (Ser172), phosphorylated IRF3 (Ser396), total TBK1, STING and GAPDH (Cell Signaling) or total IRF3 (Invitrogen). Proteins from HEK 293T lines stably expressing STING were extracted with M-PER (Thermo Scientific). 6 μg of protein was loaded onto a 4-12% MES NuPAGE gel (Life Technologies), transferred to nitrocellulose, and probed with anti-HA antibody (Santa Cruz). Anti-rabbit IRDye 680RD label secondary antibody was used for visualization of bands with the Odyssey Imaging system (LI-COR).

[5] = BALB/c mice, three IT doses of 50 μg
[6] = bilateral tumors, IT injection into one tumor
[7] = mice cured of their primary tumor

T1 sequence (Q86WV6 whole entry): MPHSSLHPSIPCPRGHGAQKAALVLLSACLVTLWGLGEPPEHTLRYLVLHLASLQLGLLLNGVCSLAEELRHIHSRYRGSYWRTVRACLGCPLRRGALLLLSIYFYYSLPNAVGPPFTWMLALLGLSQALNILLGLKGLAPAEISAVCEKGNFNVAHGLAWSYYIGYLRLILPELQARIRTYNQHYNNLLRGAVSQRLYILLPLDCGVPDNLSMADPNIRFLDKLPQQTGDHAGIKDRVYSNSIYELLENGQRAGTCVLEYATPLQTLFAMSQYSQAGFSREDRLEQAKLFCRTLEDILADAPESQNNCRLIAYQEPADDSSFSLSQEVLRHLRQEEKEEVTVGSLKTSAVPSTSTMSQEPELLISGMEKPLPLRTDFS

With Nc1ncnc2c1ncn2C1OC2COP(=O)(O)OC3C(O)C(COP(=O)(O)OC2C1O)OC3n1cnc2c(N)ncnc21 (stereo not shown) [ML-CDA] the “effect on tumor growth” value (B16.F10 tumors) was “modest effects on tumor growth”.

Nc1nc2c(ncn2[C@@H]2O[C@@H]3CO[P@@](=O)(S)O[C@@H]4[C@H](O)[C@@H](CO[P@@](=O)(S)O[C@H]3[C@H]2O)O[C@H]4n2cnc3c(=O)[nH]c(N)nc32)c(=O)[nH]1 [ML RR-S2 CDG] was tested, and the “expression of pro-inflammatory cytokines (IFN-β)” value [1] was “highest expression of pro-inflammatory cytokines”, the “efficacy at lower dose levels” value (B16.F10 tumors; lower dose levels) was “not efficacious” and the therapeutic index (B16.F10 tumors; mouse, in vivo) was “narrow therapeutic index”. The injection site reactogenicity (B16.F10 tumors) was “reactogenic” and the IFN-β reporter activation [2] was “potently activated all five hSTING alleles”.

Nc1ncnc2c1ncn2[C@@H]1O[C@@H]2COP(=O)(O)O[C@H]3[C@@H](O)[C@H](n4cnc5c(N)ncnc54)O[C@@H]3COP(=O)(O)O[C@H]2[C@H]1O [CDA] was tested, and the IFN-β reporter responsiveness (hSTING^REF) was “responded poorly”.

In the case of Nc1ncnc2c1ncn2[C@@H]1O[C@@H]2COP(O)(=S)O[C@@H]3C(O)[C@@H](COP(O)(=S)O[C@H]2[C@H]1O)O[C@H]3n1cnc2c(N)ncnc21 (stereo partly shown) [ML RR-S2 CDA, dithio-(Rp, Rp)-[cyclic[A(2′,5′)pA(3′,5′)p]]], the tumor regression (4T-1 tumors; [5]) is reported as “significant and durable tumor regression”, the “regression of the contralateral untreated tumor” value (4T-1 tumors; [6]) is reported as “significant regression of the contralateral untreated tumor” and the resistance to re-challenge (4T-1 tumors; [7]) is reported as “completely resistant to re-challenge”. The “inhibition of growth of distant lung metastases” value (B16.F10 lung metastases) was “more significant inhibition of growth of distant lung metastases than DMXAA”, the “expression of pro-inflammatory cytokines (IFN-β)” value [1] was “highest expression of pro-inflammatory cytokines” and the tumor regression (CT26 colon carcinoma; [5]) was “significant and durable tumor regression”. For the same compound, the “regression of the contralateral untreated tumor” value (CT26 colon carcinoma; [6]) was “significant regression of the contralateral untreated tumor”, the resistance to re-challenge (CT26 colon carcinoma; [7]) was “completely resistant to re-challenge” and the “potency compared to CpG-based TLR9 agonists and multiple other TLR agonists” value (B16.F10 tumors; given IT at the same doses (50 μg)) was “significantly increased potency”. The injection site reactogenicity (B16.F10 tumors) was “no injection site reactogenicity”, the “immune responses against AH1 (IFN-γ ELISPOT)” value [3] was “improved immune responses” and the “phosphorylation of TBK1 and IRF3” value [4] was “induce phosphorylation of TBK1 and IRF3”. The IFN-β reporter activation [2] was “potently activated all five hSTING alleles”.

In the case of Nc1nc2c(ncn2[C@@H]2O[C@@H]3COP(=O)(O)O[C@H]4[C@@H](O)[C@H](n5cnc6c(=O)[nH]c(N)nc65)O[C@@H]4COP(=O)(O)O[C@H]3[C@H]2O)c(=O)[nH]1 [CDG], the IFN-β reporter responsiveness (hSTING^REF) is reported as “responded poorly”.

For Nc1nc2c(ncn2C2OC3COP(=O)(O)OC4C(O)C(COP(=O)(O)OC3C2O)OC4n2cnc3c(=O)[nH]c(N)nc32)c(=O)[nH]1 (stereo not shown) [ML-CDG], the “effect on tumor growth” value (B16.F10 tumors) was “modest effects on tumor growth”.
